The text below walks through data of patent US10738043B2, “GLS1 inhibitors for treating disease” (Board of Regents, The University of Texas System, priority 2015, dated 2020).

SMILES strings stand for the structures. pEC50, pIC50: −log10 of the molar value.

The target of assay [1] is T1, GLS1 (purified recombinant human GAC) (Homo sapiens, UniProt O94925).
T1 sequence (O94925 55-598 isoform O94925-3 limits assumed): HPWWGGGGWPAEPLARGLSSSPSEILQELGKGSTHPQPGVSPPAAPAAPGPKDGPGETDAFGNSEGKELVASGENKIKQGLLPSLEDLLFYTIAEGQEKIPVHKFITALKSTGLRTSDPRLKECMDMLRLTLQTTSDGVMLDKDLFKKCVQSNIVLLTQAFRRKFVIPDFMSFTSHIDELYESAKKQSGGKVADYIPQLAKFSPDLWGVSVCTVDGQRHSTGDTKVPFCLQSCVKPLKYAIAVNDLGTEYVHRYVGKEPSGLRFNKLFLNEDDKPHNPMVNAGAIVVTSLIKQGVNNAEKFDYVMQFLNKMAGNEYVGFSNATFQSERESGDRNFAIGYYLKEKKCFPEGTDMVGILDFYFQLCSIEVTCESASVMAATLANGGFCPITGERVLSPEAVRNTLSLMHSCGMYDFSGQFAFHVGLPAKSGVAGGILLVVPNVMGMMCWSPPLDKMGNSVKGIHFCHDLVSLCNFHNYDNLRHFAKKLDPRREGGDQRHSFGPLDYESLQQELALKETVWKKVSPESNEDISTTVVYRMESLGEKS
As to the kind of experiment: GLS1 Enzymatic Activity Assay (dual-coupled enzymatic assay). The format is biochemical. To be noted: 50 mM potassium phosphate, 1 mM glutamine, read-out: IC50 against GLS1. The method, then:
GLS1 Enzymatic Activity Assay
The inhibition of purified recombinant human GAC by varying concentrations of inhibitors is assessed via a dual-coupled enzymatic assay. The glutamate produced by the glutaminase reaction is used by glutamate oxidase to produce α-ketoglutarate, ammonia, and hydrogen peroxide, with this hydrogen peroxide subsequently being used by horseradish peroxidase to produce resorufin in the presence of Amplex UltraRed. The assay buffer consisted of 50 mM HEPES (pH 7.4), 0.25 mM EDTA and 0.1 mM Triton X-100. GAC was incubated with potassium phosphate (10 minutes at room temperature) prior to incubation with inhibitor (10 minutes at room temperature). The final reaction conditions were as follows: 2 nM GAC, 50 mM potassium phosphate, 100 mU/ml glutamate oxidase (Sigma), 1 mM glutamine (Sigma), 100 mU/ml horseradish peroxidase (Sigma), 75 μM Amplex UltraRed (Life Technologies), and 1% (v/v) DMSO. The production of resorufin was monitored on a Perkin Elmer Envision plate reader (excitation 530 nm, emission 590 nm) either in a kinetics or endpoint mode (at 20 minutes). IC50 values were calculated using a four-parameter logistic curve fit.

The next assay relates to A549 cells. The assay can be described thus: Proliferation Assay (A549 viability, Cell Titer Fluor, 72 hours). Format: cell-based. The settings on record: Homo sapiens, read-out: EC50 against A549 cell proliferation. The method, then:
A549 cells were routinely maintained in RPMI 1640 media (Gibco catalog number 11875-093) supplemented with 10% dialyzed fetal bovine serum using a humidified incubator (37° C., 5% CO2 and ambient O2). In preparation for the viability assay, cells were inoculated into 384-well black CulturPlates (Perkin Elmer) at a density of 1000 cells/well in a volume of 40 μl. Following a 24-hour incubation at 37° C., 5% CO2 and ambient 02, cells were treated with compound (10 μl) in a final DMSO concentration of 0.5% (v/v). The microplates were then incubated for 72 hours (37° C., 5% CO2 and ambient O2). Cell Titer Fluor (Promega) was subsequently added (10 μl of 6× reagent) and mixed for 15 minutes at room temperature. The plates were then incubated for 30 minutes (37° C., 5% CO2 and ambient O2) and fluorescence was subsequently read on the Perkin Elmer Envision plate reader. EC50 values were calculated using a four-parameter logistic curve fit.

With `O=C(Cc1cccc(OC(F)(F)F)c1)Nc1ccc(N2CCC(c3nnc(NC(=O)Cc4ccccc4F)s3)C2)nn1` (stereo not drawn) [Example 20, 2-(2-fluorophenyl)-N-(5-(1-(6-(2-(3-(trifluoromethoxy)phenyl)acetamido)pyridazin-3-yl)pyrrolidin-3-yl)-1,3,4-thiadiazol-2-yl)acetamide 2,2,2-trifluoroacetate], the pIC50 in assay [1] was > 7.00. In the assay with A549 cells, the pEC50 was 6.30 to 7.00.
For `O=C(Cc1cccc(OC(F)(F)F)c1)Nc1ccc(C2CCN(c3nnc(NC(=O)Cc4ccccn4)s3)C2)nn1` (stereo not drawn) [Example 21, 2-(pyridin-2-yl)-N-(5-(3-(6-(2-(3-(trifluoromethoxy)phenyl)acetamido)pyridazin-3-yl)pyrrolidin-1-yl)-1,3,4-thiadiazol-2-yl)acetamide], in assay [1], the pIC50 is > 7.00. Moreover, in the assay on A549 cells, the pEC50 is 6.30 to 7.00.
Take `O=C(Cc1cccc(OC(F)(F)F)c1)Nc1ccc(C2CCN(c3nnc(C(=O)NCc4ccccn4)s3)C2)nn1` (stereo not drawn) [Example 22, N-(pyridin-2-ylmethyl)-5-(3-(6-(2-(3-(trifluoromethoxy)phenyl)acetamido)pyridazin-3-yl)pyrrolidin-1-yl)-1,3,4-thiadiazole-2-carboxamide]: in assay [1], the pIC50 is > 7.00. Besides, in the assay on A549 cells, the pEC50 is > 7.00.
Consider `O=C(Cc1cccc(OC(F)(F)F)c1)Nc1ccc(N2CCCC(c3nnc(NC(=O)Cc4ccccc4F)s3)C2)nn1` (stereo not drawn) [Example 23, 2-(2-fluorophenyl)-N-(5-(1-(6-(2-(3-(trifluoromethoxy)phenyl)acetamido)pyridazin-3-yl)piperidin-3-yl)-1,3,4-thiadiazol-2-yl)acetamide], for which the negative logarithm of the IC50 (pIC50) in assay [1] is > 7.00. Also, the pEC50 with A549 cells is 6.30 to 7.00.
For `Cn1cc(CC(=O)Nc2nnc(C3CCCN(c4ccc(NC(=O)Cc5cccc(OC(F)(F)F)c5)nn4)C3)s2)cn1` (stereo not drawn) [Example 24, 2-(1-Methyl-1H-pyrazol-4-yl)-N-(5-(1-(6-(2-(3-(trifluoromethoxy)phenyl)acetamido)pyridazin-3-yl)piperidin-3-yl)-1,3,4-thiadiazol-2-yl)acetamide], in that order: > 7.00 and 5.30 to 6.30.
Regarding `CC(=O)Nc1nnc(C2CCCN(c3nnc(NC(=O)Cc4cccc(OC(F)(F)F)c4)s3)C2)s1` (stereo not drawn) [Example 25, N-(5-(3-(5-acetamido-1,3,4-thiadiazol-2-yl)piperidin-1-yl)-1,3,4-thiadiazol-2-yl)-2-(3-(trifluoromethoxy)phenyl)acetamide], the negative-log IC50 (pIC50) in assay [1] was 6.30 to 7.00. For the same compound, the pEC50 with A549 cells is 5.30 to 6.30.
Take `O=C(Cc1ccccn1)Nc1nnc(C2CCCN(c3nnc(NC(=O)Cc4cccc(OC(F)(F)F)c4)s3)C2)s1` (stereo not drawn) [Example 26, 2-(pyridin-2-yl)-N-(5-(1-(5-(2-(3-(trifluoromethoxy)phenyl)acetamido)-1,3,4-thiadiazol-2-yl)piperidin-3-yl)-1,3,4-thiadiazol-2-yl)acetamide]: in assay [1], the pIC50 was > 7.00. In the assay on A549 cells, the pEC50 is 6.30 to 7.00.
As for `CC(=O)Nc1nnc(N2CCC(c3ccc(NC(=O)Cc4cccc(OC(F)(F)F)c4)nn3)C2)s1` (stereo not drawn) [Example 27, N-(6-(1-(5-acetamido-1,3,4-thiadiazol-2-yl)pyrrolidin-3-yl)pyridazin-3-yl)-2-(3-(trifluoromethoxy)phenyl)acetamide], in assay [1], the negative-log IC50 (pIC50) is > 7.00. The pEC50 with A549 cells was 6.30 to 7.00.
As for `CC(=O)Nc1nnc(C2CCN(c3ccc(NC(=O)Cc4cccc(OC(F)(F)F)c4)nn3)C2)s1` (stereo not drawn) [Example 29, N-(6-(3-(5-acetamido-1,3,4-thiadiazol-2-yl)pyrrolidin-1-yl)pyridazin-3-yl)-2-(3-(trifluoromethoxy)phenyl)acetamide], the negative logarithm of the IC50 (pIC50) in assay [1] was > 7.00. Besides, in the assay on A549 cells, the pEC50 was 6.30 to 7.00.
Turning to `O=C(Cc1ccccn1)Nc1nnc(C2CCN(c3nnc(NC(=O)Cc4cccc(OC(F)(F)F)c4)s3)C2)s1` (stereo not drawn) [Example 32, 2-(pyridin-2-yl)-N-(5-(1-(5-(2-(3-(trifluoromethoxy)phenyl)acetamido)-1,3,4-thiadiazol-2-yl)pyrrolidin-3-yl)-1,3,4-thiadiazol-2-yl)acetamide], the pIC50 in assay [1] is 6.30 to 7.00. Also, in the assay with A549 cells, the pEC50 was 5.30 to 6.30.
For the compound `O=C(Cc1cccc(OC(F)(F)F)c1)Nc1ccc(N2CCC(c3nnc(NC(=O)Cc4ccc(F)cc4F)s3)C2)nn1` (stereo not drawn) [Example 33, 2-(2,4-difluorophenyl)-N-(5-(1-(6-(2-(3-(trifluoromethoxy)phenyl)acetamido)pyridazin-3-yl)pyrrolidin-3-yl)-1,3,4-thiadiazol-2-yl)acetamide], the pIC50 in assay [1] is > 7.00. For the same compound, in the assay with A549 cells, the pEC50 is 6.30 to 7.00.
In the case of `O=C(Cc1cccc(OC(F)(F)F)c1)Nc1ccc(N2CCC(c3nnc(NC(=O)CC4CCCCO4)s3)C2)nn1` (stereo not drawn) [Example 34, 2-(tetrahydro-2H-pyran-2-yl)-N-(5-(1-(6-(2-(3-(trifluoromethoxy)phenyl)acetamido)pyridazin-3-yl)pyrrolidin-3-yl)-1,3,4-thiadiazol-2-yl)acetamide], the negative-log IC50 (pIC50) in assay [1] is > 7.00. The pEC50 in the assay on A549 cells is > 7.00.
Turning to `O=C(Cc1cccc(OC(F)(F)F)c1)Nc1ccc(N2CCC(c3nnc(NC(=O)Cc4noc5ccccc45)s3)C2)nn1` (stereo not drawn) [Example 36, 2-(benzo[d]isoxazol-3-yl)-N-(5-(1-(6-(2-(3-(trifluoromethoxy)phenyl)acetamido)pyridazin-3-yl)pyrrolidin-3-yl)-1,3,4-thiadiazol-2-yl)acetamide], the pIC50 in assay [1] was > 7.00. The pEC50 with A549 cells is 6.30 to 7.00.
Taken in the same sequence, the figures for `Cn1ccc(CNC(=O)c2nnc(N3CCC(c4ccc(NC(=O)Cc5ccccn5)nn4)C3)s2)n1` (stereo not drawn) [Example 37, N-((1-methyl-1H-pyrazol-3-yl)methyl)-5-(3-(6-(2-(pyridin-2-yl)acetamido)pyridazin-3-yl)pyrrolidin-1-yl)-1,3,4-thiadiazole-2-carboxamide] were > 7.00 and 6.30 to 7.00.
Consider `O=C(Cc1ccccn1)Nc1ccc(C2CCN(c3nnc(C(=O)NCc4cc(C(F)(F)F)ccn4)s3)C2)nn1` (stereo not drawn) [Example 38, 5-(3-(6-(2-(pyridin-2-yl)acetamido)pyridazin-3-yl)pyrrolidin-1-yl)-N-((4-(trifluoromethyl)pyridin-2-yl)methyl)-1,3,4-thiadiazole-2-carboxamide], for which the negative-log IC50 (pIC50) in assay [1] is > 7.00. In addition, the pEC50 with A549 cells is > 7.00.
In the case of `NC(=O)c1nnc(N2CCC(c3ccc(NC(=O)Cc4ccccn4)nn3)C2)s1` (stereo not drawn) [Example 39, 5-(3-(6-(2-(pyridin-2-yl)acetamido)pyridazin-3-yl)pyrrolidin-1-yl)-1,3,4-thiadiazole-2-carboxamide], the pIC50 in assay [1] is 6.30 to 7.00. Besides, the pEC50 in the assay with A549 cells was 5.30 to 6.30.
For `CNC(=O)c1nnc(N2CCC(c3ccc(NC(=O)Cc4cn(-c5cccc(OC(F)(F)F)c5)cn4)nn3)C2)s1` (stereo not drawn) [Example 40, N-methyl-5-(3-(6-(2-(1-(3-(trifluoromethoxy)phenyl)-1H-imidazol-4-yl)acetamido)pyridazin-3-yl)pyrrolidin-1-yl)-1,3,4-thiadiazole-2-carboxamide], in that order: > 7.00 and > 7.00.
Take `CNC(=O)c1nnc(N2CCC(c3ccc(NC(=O)Cc4ccccn4)nn3)C2)s1` (stereo not drawn) [Example 41, N-methyl-5-(3-(6-(2-(pyridin-2-yl)acetamido)pyridazin-3-yl)pyrrolidin-1-yl)-1,3,4-thiadiazole-2-carboxamide]: the pIC50 in assay [1] is 6.30 to 7.00. For the same compound, the pEC50 in the assay on A549 cells was 6.30 to 7.00.

The pIC50 is −log10 of the IC50, conventionally taken in molar units.
